Each structure is given as a SMILES string. Entries after “also recorded” stand apart in the source; their conditions may differ.

The test system of one assay is DS cells. The assay is described as follows: DS lymphoma cell growth, MTT assay. Type of assay: cell-based, human. The conditions noted are these: day 3; IFN-alpha 1,000 u/ml. The procedure:
(§1) For cell proliferation assays, cells were grown in 10% FCS culture medium containing various amounts of IFNs and/or sodium stibogluconate in 96 well plates and cultured at 37° C. for 3 or 6 days as indicated. The numbers of viable cells in proliferation assays were determined by MTT assays as described in Phatak et al., J. Immunol. 167, 3391 (2001).
In general terms: Formazan colour is commonly taken as a measure of viable cells.

A further assay deals with Renca cells. The assay is described as follows: Renca cell growth in culture, MTT assay. Type of assay: cell-based, murine. Conditions: SSG 6.25-200 μg/ml, 6 days; listed as SSG. An excerpt: Renca (Murphy, G. P., and W. J. Hrushesky. 1973. A murine renal cell carcinoma. J Natl Cancer Inst 50:1013), Jurkat (Gillis, S., and J. Watson. 1980. Biochemical and biological characterization of lymphocyte regulatory molecules. V. Identification of an interleukin 2-producing human leukemia T cell line. J Exp Med 152:1709) and WM9 (Forsberg, K., I. Valyi-Nagy, C. H. Heldin, M. Herlyn, and B. Westermark. 1993. Platelet-derived growth factor (PDGF) in oncogenesis: development of a vascular connective tissue stroma in xenotransplanted human melanoma producing PDGF-BB. Proc Natl Acad Sci USA 90:393) cell lines were obtained from a colleague at the Cleveland Clinic Foundation (CCF) and cultured in RPMI 1640 medium supplemented with 10% fetal calf serum (FCS). […] SSG has been described previously (Yi, T., M. K. Pathak, D. J. Lindner, M. E. Ketterer, C. Farver, and E. C. Borden. 2002. Anticancer activity of sodium stibogluconate in synergy with IFNs. J Immunol 169:5978). For cell growth inhibition assays, cells were cultured in absence or presence of various amounts of SSG for 6 days with viable cells quantified by MTT assays as described elsewhere (Pathak, M. K., and T. Yi. 2001. Sodium stibogluconate is a potent inhibitor of protein tyrosine phosphatases and augments cytokine responses in hemopoietic cell lines. J Immunol 167:3391).

The target of a further assay is T1, intracellular Flag-PRL-3 (Homo sapiens, UniProt O75365).
T1 construct: expressed in transfected cells; host or cells: NIH3T3 transfectants, pBabepuro vector
The assay is described as follows: Immunocomplex PTPase assay, Flag-PRL-3 NIH3T3 transfectants. Type of assay: cell-based, mouse. The conditions noted are these: 5 min treatment. The procedure: Immunocomplex PTPase assays were performed to assess the effects of sodium stibogluconate on intracellular PTPases. Cells were untreated or treated with sodium stibogluconate for 5 minutes, washed with fresh medium and then lysed in cold lysis buffer (50 mM Tris, pH 7.4; 150 mM NaCl; 1% NP40; 2 mM PMSF; 20, g/ml of Aprotinin). The lysates were incubated with an anti-Flag antibody in immunoprecipitation assays. The immunocomplexes were collected with protein G sepharose beads (Pharmacia) and washed in cold lysis buffer for 4 times. […] 100 µL of malachite green solution (UBI) was added to each reaction prior to measurement of OD660 to quantify the amounts of free phosphate cleaved by the PTPases from the peptide substrate (Pathak et al., J. Imumol. 167, 3391 (2001)). The remaining 10% contents of individual samples were analyzed by SDS-PAGE/Western blotting to quantify the relative amounts of the phosphatase proteins. […]
The effects of sodium stibogluconate on intracellular PTPases were assessed using NIH3T3 or WM9 transfectants. […]

The subject of a further assay is MDA231 cells. The assay is described as follows: MDA231 breast cancer cell growth, MTT assay. Type of assay: cell-based, human. Conditions: single agent, 50-100 μg/ml, day 6. As for the experimental part:
as §1

The subject of the next assay is NB4 cells. The assay is described as follows: NB4 Annexin V/propidium iodide assay. The class given is cell-based, human. The conditions noted are these: 250 μg/ml, 6 days. The procedure: Annexin V staining of exposed membrane phospholipid phosphatidylserine (PS) was done using the Annexin V assay kit (Pharmingen, San Diego, Calif.). […] Cells were then washed in PBS twice and stained in binding buffer (10 mM Hepes, pH 7.4; 140 mM NaCl; 2.5 mM CaCl2) containing Annexin V-FITC and propidium iodide for 15 min. The reaction was stopped by adding 10 volumes of binding buffer and analyzed by FACS (Becton Dickinson Facsvantage).

The subject of the next assay is human peripheral blood. The assay is described as follows: ELISPOT of cytokine-positive cells in human peripheral blood treated in vitro. Conditions: comparable conditions. Type of assay: cell-based.
The subject of another assay is TF-1 cells. The assay is described as follows: TF-1 cell proliferation assay. Type of assay: cell-based, human. The procedure:
The murine hematopoietic cell line Baf3 was maintained in RPMI 1640 medium supplemented with 10% fetal calf serum (FCS) and murine IL-3 (20 units/ml) as described previously in Damen et al., J. Biol. Chem. 270, 23402 (1995). Human myeloid cell line TF-1 was maintained in RPMI 1640 supplemented with 10% FCS and 40 ng/ml of recombinant human GM-CSF as described previously in Thomassen et al., Clin. Immunol. 95, 85 (2000). For cell proliferation assays, cells were washed in 10% FCS medium twice, resuspended in 10% FCS medium, incubated at 37° C. for 16 hours, and then cultured at 37° C. in 10% FCS medium containing various amounts of cytokines, sodium stibogluconate, or potassium antimonyl tartrate for 3-6 days as indicated. The cell numbers in proliferation assays were determined by an MTT assay or by microscopic cell counting as indicated.

The test system of the next assay is Jurkat cells. The assay is described as follows: IFN-gamma secretion by Jurkat cells, ELISA. The class given is cell-based, human. Conditions: 16 hrs. As for the experimental part:
Jurkat cells were cultured in the absence or presence of various amounts of SSG for 16 hours. The cells and culture medium supernatants were separated by centrifugation (1,000 g, 10 min). The amounts of IFN-gamma in the culture medium supernatants were quantified using an ELISA kit (R.D. system, Minneapolis, Minn.) following the manufacturer's protocol.
(An ELISA detects its analyte on a solid surface through an enzyme-linked reagent.)

T1 sequence (O75365 whole entry): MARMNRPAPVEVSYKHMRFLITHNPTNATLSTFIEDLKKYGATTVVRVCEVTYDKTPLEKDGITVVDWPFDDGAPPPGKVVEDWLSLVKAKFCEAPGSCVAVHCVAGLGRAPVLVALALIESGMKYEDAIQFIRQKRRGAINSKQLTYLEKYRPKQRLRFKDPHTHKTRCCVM

Take `O.O.O.O.O.O.O.O.O.O=C([O-])[C@@H]1[O][Sb]2([O-])([O][Sb]34([OH])[O][C@H]([C@H](O)CO)[C@H]([O]3)[C@H](C(=O)[O-])[O]4)[O][C@H]([C@H](O)CO)[C@@H]1[O]2.[Na+].[Na+].[Na+]` [sodium stibogluconate]: the “activity against DS cells” value in the assay on DS cells was “modest activity”. For the same molecule, the “Renca cell growth in culture” value in the assay with Renca cells was “failed to inhibit Renca cell proliferation in culture”. The “PTPase activity of Flag-PRL-3 immunocomplexes from treated cells” value at intracellular Flag-PRL-3 is reported as “lack of PTPase activity”. The “killing of MDA231 cells” value in the assay on MDA231 cells was “killed all cells; also recorded: complete or near complete killing”. In addition, the “Annexin V staining of NB4 cells” value with NB4 cells is given as “stained positive by Annexin V”. The “induction of IL-5+ cells” value in the assay on human peripheral blood is “not induced”. Also, in the assay on TF-1 cells (12.5-50 μg/ml), the “effect on GM-CSF-induced cell growth” value was “no negative effect on GM-CSF-induced cell growth”. For the same molecule, in the assay with TF-1 cells (sodium stibogluconate 50 μg/ml, GM-CSF 5-40 ng/ml), the “GM-CSF-induced TF-1 proliferation” value is “augmented”. In addition, in the assay with Jurkat cells, the “IFN-gamma secretion by Jurkat T cells” value is reported as “increased amounts of IFN-gamma”.

For the origin of these results see patent US20080226596A1, “Therapeutic compositions and methods useful in treating hepatitis” (priority 2006, published 2008).
